According to patent US20240199546A1, “INHIBITORS OF SOLUTE CARRIER FAMILY 6A MEMBER 19 (SLC6A19) AND METHODS OF USE THEREOF” (Maze Therapeutics, Inc., priority 2022, published 2024):

The compounds below were run against T1, human SLC6A19 and TMEM27 (Homo sapiens, UniProt Q695T7) (assay: Radiolabelled (3H) leucine uptake in CHO cells with doxycycline-inducible expression of human SLC6A19 and TMEM27 (Example B-1)). Details: CHO cells with doxycycline-inducible expression of human SLC6A19 and TMEM27, read-out: SLC6A19_Radioligand Uptake Assay IC50.
T1 construct: expressed in transfected cells
T1 sequence (Q695T7 1-634): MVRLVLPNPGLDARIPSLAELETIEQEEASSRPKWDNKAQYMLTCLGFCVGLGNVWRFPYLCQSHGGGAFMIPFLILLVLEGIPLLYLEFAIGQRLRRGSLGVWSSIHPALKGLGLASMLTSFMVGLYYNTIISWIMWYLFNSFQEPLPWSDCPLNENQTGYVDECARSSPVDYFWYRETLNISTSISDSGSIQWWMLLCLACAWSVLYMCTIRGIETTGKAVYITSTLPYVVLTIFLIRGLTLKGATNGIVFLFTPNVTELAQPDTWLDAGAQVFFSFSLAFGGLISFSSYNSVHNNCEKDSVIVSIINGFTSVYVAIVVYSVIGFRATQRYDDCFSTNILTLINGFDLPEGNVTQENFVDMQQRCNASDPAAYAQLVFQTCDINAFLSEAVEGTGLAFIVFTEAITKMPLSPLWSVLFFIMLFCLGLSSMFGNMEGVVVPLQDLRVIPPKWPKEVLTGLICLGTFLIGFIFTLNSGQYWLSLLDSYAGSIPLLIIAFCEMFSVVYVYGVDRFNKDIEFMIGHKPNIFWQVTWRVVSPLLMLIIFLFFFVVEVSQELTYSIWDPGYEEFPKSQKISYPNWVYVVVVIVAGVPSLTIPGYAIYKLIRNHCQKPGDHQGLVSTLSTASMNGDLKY
T1 sequence (Q9HBJ8 15-222 partner): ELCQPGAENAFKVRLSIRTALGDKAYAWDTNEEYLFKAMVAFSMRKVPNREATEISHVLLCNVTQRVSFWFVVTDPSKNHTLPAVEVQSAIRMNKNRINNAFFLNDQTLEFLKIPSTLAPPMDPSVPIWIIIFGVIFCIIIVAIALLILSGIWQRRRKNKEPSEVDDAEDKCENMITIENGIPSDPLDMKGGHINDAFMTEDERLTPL
Type: cell-based
In short: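 CHO cells were induced with doxycycline for 18 h at 37 °C, washed in HBSS, then exposed to compounds for 1 h: 8-point, 3-fold dilutions in duplicate, 0.5% DMSO final. Uptake measured by scintillation counting after 2 h shaking. Activity normalized with positive control as 0% and DMSO as 100%.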

| Compound | IC50 [nM] |
| --- | --- |
| O=C(NCc1cc2cc(C(F)(F)F)c(OCc3ccon3)cc2[nH]1)N1CCC1 [Compound 477, N-((6-(isoxazol-3-ylmethoxy)-5-(trifluoromethyl)-1H-indol-2-yl)methyl)azetidine-1-carboxamide] | 383 |
| O=C(NCc1cc2ccc(OCc3ccon3)cc2[nH]1)N1CCC(F)C1 (stereo not shown) [Compound 200, 3-fluoro-N-((6-(isoxazol-3-ylmethoxy)-1H-indol-2-yl)methyl)pyrrolidine-1-carboxamide] | 752 |
| Cc1cc(COc2cc3[nH]c(CNC(=O)C4CCO4)cc3cc2F)on1 (stereo not shown) [Compound 262, N-((5-fluoro-6-((3-methylisoxazol-5-yl)methoxy)-1H-indol-2-yl)methyl)oxetane-2-carboxamide] | 472 |
| Cc1cc(COc2cc3[nH]c(CNC(=O)[C@H]4CC[C@@H]4O)cc3cc2Cl)on1 (racemic) [Compound 248, (1R,2R)-N-((5-chloro-6-((3-methylisoxazol-5-yl)methoxy)-1H-indol-2-yl)methyl)-2-hydroxycyclobutane-1-carboxamide and (1S,2S)-N-((5-chloro-6-((3-methylisoxazol-5-yl)methoxy)-1H-indol-2-yl)methyl)-2-hydroxycyclobutane-1-carboxamide] | 627 |
| Cc1cc(COc2cc3[nH]c(CNC(=O)[C@H]4CCN4)cc3cc2Cl)on1 [Compound 616, (R)-N-((5-chloro-6-((3-methylisoxazol-5-yl)methoxy)-1H-indol-2-yl)methyl)azetidine-2-carboxamide] | 2730 |
| O=C(NCc1cc2cc(OC(F)(F)F)c(OCc3ccon3)cc2[nH]1)N1CCCC1 [Compound 420, N-((6-(isoxazol-3-ylmethoxy)-5-(trifluoromethoxy)-1H-indol-2-yl)methyl)pyrrolidine-1-carboxamide] | 355 |
| CC1(C(=O)NCc2cc3cc(Cl)c(OCCOC4CC4)cc3[nH]2)CC1 [Compound 335, N-((5-chloro-6-(2-cyclopropoxyethoxy)-1H-indol-2-yl)methyl)-1-methylcyclopropane-1-carboxamide] | 126 |
| Cc1cc(COc2cc3[nH]c(CNC(=O)C(C)C4COC4)cc3cc2Cl)on1 (racemic) [Compound 545, (S)-N-((5-chloro-6-((3-methylisoxazol-5-yl)methoxy)-1H-indol-2-yl)methyl)-2-(oxetan-3-yl)propenamide and (R)-N-((5-chloro-6-((3-methylisoxazol-5-yl)methoxy)-1H-indol-2-yl)methyl)-2-(oxetan-3-yl)propanamide] | 3540 |
| Cc1cc(CNc2cc3[nH]c(CNC(=O)N4CCCC4)cc3cc2Cl)no1 [Compound 469, N-((5-chloro-6-(((5-methylisoxazol-3-yl)methyl)amino)-1H-indol-2-yl)methyl)pyrrolidine-1-carboxamide] | 392 |
| O=C(NCc1cc2cc(Cl)c(OCc3ccon3)cc2[nH]1)N1CCCCC1 [Compound 85, N-((5-chloro-6-(isoxazol-3-ylmethoxy)-1H-indol-2-yl)methyl)piperidine-1-carboxamide] | 402 |
| O=C(NCc1cc2cc(Cl)c(OCc3cscn3)cc2[nH]1)[C@@H]1C[C@H]1F [Compound 543, (1S,2R)-N-((5-chloro-6-(thiazol-4-ylmethoxy)-1H-indol-2-yl)methyl)-2-fluorocyclopropane-1-carboxamide] | 145 |
| CC1(C(=O)NCc2cc3cc(OC(F)F)c(OCc4ccon4)cc3[nH]2)CC1 [Compound 605, N-((5-(difluoromethoxy)-6-(isoxazol-3-ylmethoxy)-1H-indol-2-yl)methyl)-1-methylcyclopropane-1-carboxamide] | 143 |
| Cc1cc(COc2cc3[nH]c(CNC(=O)C4(C#N)CCC4)cc3cc2Cl)on1 [Compound 487, N-((5-chloro-6-((3-methylisoxazol-5-yl)methoxy)-1H-indol-2-yl)methyl)-1-cyanocyclobutane-1-carboxamide] | 367 |
| [2H]C([2H])([2H])C1(C(=O)NCc2cc3cc(Cl)c(OCc4cscn4)cc3[nH]2)CC1 [Compound 483, N-((5-chloro-6-(thiazol-4-ylmethoxy)-1H-indol-2-yl)methyl)-1-(methyl-d3)cyclopropane-1-carboxamide] | 170 |
| O=C(NCc1cc2cc(F)c(OCc3cscn3)cc2[nH]1)N1CCC1 [Compound 92, N-((5-fluoro-6-(thiazol-4-ylmethoxy)-1H-indol-2-yl)methyl)azetidine-1-carboxamide] | 214 |
| O=C(NCc1cc2cc(F)c(OCc3ccccn3)cc2[nH]1)C1CC1 [Compound 505, N-((5-fluoro-6-(pyridin-2-ylmethoxy)-1H-indol-2-yl)methyl)cyclopropanecarboxamide] | 203 |

| Compound | IC50 [nM] |
| --- | --- |
| CC1(C(=O)NCc2cc3cc(Cl)c(OCc4cscn4)cc3[nH]2)COC1 [Compound 277, N-((5-chloro-6-(thiazol-4-ylmethoxy)-1H-indol-2-yl)methyl)-3-methyloxetane-3-carboxamide] | 279 |
| CC1(C(=O)NCc2cc3cc(Cl)c(OCc4cc5ccccc5[nH]4)cc3[nH]2)CC1 [Compound 607, N-((6-((1H-indol-2-yl)methoxy)-5-chloro-1H-indol-2-yl)methyl)-1-methylcyclopropane-1-carboxamide] | > 6440 |
| C[C@@H](O)C(=O)NCc1cc2cc(Cl)c(OCc3cscn3)cc2[nH]1 [Compound 257, (R)-N-((5-chloro-6-(thiazol-4-ylmethoxy)-1H-indol-2-yl)methyl)-2-hydroxypropanamide] | 756 |
| O=C(NCc1cc2cc(F)c(OCc3cscn3)cc2[nH]1)C1(C(F)(F)F)CC1 [Compound 127, N-((5-fluoro-6-(thiazol-4-ylmethoxy)-1H-indol-2-yl)methyl)-1-(trifluoromethyl)cyclopropane-1-carboxamide] | 98 |
| Cc1cc(COc2cc3[nH]c(CNC(=O)C[C@H]4CCOC4)cc3cc2Cl)on1 [Compound 290, (R)-N-((5-chloro-6-((3-methylisoxazol-5-yl)methoxy)-1H-indol-2-yl)methyl)-2-(tetrahydrofuran-3-yl)acetamide] | 5290 |
| COCC(=O)NCc1cc2cc(F)c(OCc3cscn3)cc2[nH]1 [Compound 265, N-((5-fluoro-6-(thiazol-4-ylmethoxy)-1H-indol-2-yl)methyl)-2-methoxyacetamide] | 120 |
| O=C(NCc1cc2cc(Cl)c(OCc3cocn3)cc2[nH]1)C1CC1 [Compound 429, N-((5-chloro-6-(oxazol-4-ylmethoxy)-1H-indol-2-yl)methyl)cyclopropanecarboxamide] | 215 |
| CC1(C(=O)NCc2cc3cc(Cl)c(CCn4cnnn4)cc3[nH]2)CC1 [Compound 585, N-((6-(2-(1H-tetrazol-1-yl)ethyl)-5-chloro-1H-indol-2-yl)methyl)-1-methylcyclopropane-1-carboxamide] | > 9230 |
| C[C@H]1CCN1C(=O)NCc1cc2cc(Cl)c(OCc3cscn3)cc2[nH]1 [Compound 360, (S)-N-((5-chloro-6-(thiazol-4-ylmethoxy)-1H-indol-2-yl)methyl)-2-methylazetidine-1-carboxamide] | 432 |
| Cc1cc(COc2cc3[nH]c(CNC(=O)c4ccon4)cc3cc2Cl)on1 [Compound 450, N-((5-chloro-6-((3-methylisoxazol-5-yl)methoxy)-1H-indol-2-yl)methyl)isoxazole-3-carboxamide] | 95.1 |
| Cc1cc(COc2cc3[nH]c(CNC(=O)[C@H]4CCN4C)cc3cc2Cl)on1 [Compound 575, (R)-N-((5-chloro-6-((3-methylisoxazol-5-yl)methoxy)-1H-indol-2-yl)methyl)-1-methylazetidine-2-carboxamide] | 3050 |
| Cc1cc(COc2cc3[nH]c(CNC(=O)[C@H](C)O)cc3cc2F)on1 [Compound 239, (S)-N-((5-fluoro-6-((3-methylisoxazol-5-yl)methoxy)-1H-indol-2-yl)methyl)-2-hydroxypropanamide] | 5880 |
| Cc1cc(COc2cc3[nH]c(CNC(=O)[C@@H]4CCN4)cc3cc2Cl)on1 [Compound 448, (S)-N-((5-chloro-6-((3-methylisoxazol-5-yl)methoxy)-1H-indol-2-yl)methyl)azetidine-2-carboxamide] | 2750 |
| O=C(NCc1cc2cc(Cl)c(CCc3cscn3)cc2[nH]1)N1CCC1 [Compound 599, N-((5-chloro-6-(2-(thiazol-4-yl)ethyl)-1H-indol-2-yl)methyl)azetidine-1-carboxamide] | 163 |
| O=C(NCc1cc2cc(C3CC3)c(OCc3ccon3)cc2[nH]1)N1CCCC1 [Compound 654, N-((5-cyclopropyl-6-(isoxazol-3-ylmethoxy)-1H-indol-2-yl)methyl)pyrrolidine-1-carboxamide] | 537 |
